Reference: patent US9012436B2, “Lipid composition” (Diurnal Limited, priority 2008, dated 2015)

Assay: Solubilisation capacity of formulation systems for testosterone
Description: The formulation systems as detailed in Table 1 all show significant solubilisation capacity for testosterone (>50 mg/^1) which is at least 100-fold higher than that achievable in aqueous media (<0.3 mg/g^1) and at least 5-fold higher than that achievable in single component lipidic vehicles alone (max.<10 mg/g).
^1N.B: For aqueous systems 1 g=1 mL; for oil systems 1 g=>1 mL

C[C@]12CC[C@H]3[C@@H](CCC4=CC(=O)CC[C@@]43C)[C@@H]1CC[C@@H]2O [testosterone]
Solubility of testosterone achievable in aqueous media (aqueous media): < 0.3 mg/g
Solubility of testosterone achievable in single component lipidic vehicles alone (single component lipidic vehicles, max.): < 10 mg/g
